Consider two molecules from patent US5656613A, “Treatment of hyperandrogenic conditions” (Merck & Co., Inc., priority 1995, dated 1997).

Entries after “also recorded” stand apart in the source; their conditions may differ. Where two headings read alike, the source gives them in different places.

The target of experiment [1] is T1, human prostate (type 2) 5α-reductase (Homo sapiens, UniProt P31213).
T1 sequence (P31213 1-254): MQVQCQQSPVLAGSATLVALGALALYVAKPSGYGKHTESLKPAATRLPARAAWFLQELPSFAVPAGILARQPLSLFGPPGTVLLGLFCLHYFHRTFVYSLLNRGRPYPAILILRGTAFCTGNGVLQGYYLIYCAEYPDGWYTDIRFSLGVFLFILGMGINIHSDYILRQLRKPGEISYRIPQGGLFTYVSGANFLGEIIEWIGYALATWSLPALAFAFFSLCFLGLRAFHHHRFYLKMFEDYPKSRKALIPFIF
The experiment is described as follows: Steady-state enzyme kinetics of substrates. The class given is biochemical. The arrangement: native prostate enzyme considered interchangeable. To be noted: pH 7.2, 37° C. From the text: The model applies in many aspects to both slow-binding, reversible inhibitors and to mechanism-based, irreversible ones.
(§1) When tissue extracts were the source of enzyme, the quenched reactions were clarified by centrifugation at 10,000×g before analysis.

Experiment [2] addresses T1, human prostate (type 2) 5α-reductase. To be noted: read-out: Km for testosterone; native human prostate enzyme, neutral pH; Faller et al.; cited from earlier work.
For experiment [3], the target named is T2, human prostate (type 2) isozyme of 5α-reductase (Homo sapiens, UniProt P31213).
T2 sequence (P31213 1-254): T1 sequence (P31213 1-254)
The experiment is described as follows: Release of radiolabel on denaturation of enzyme-[^3 H]finasteride complex. The arrangement: host or cells: native human prostate tissue or recombinant from a baculovirus expression system; considered interchangeable. The class given is binding. As for the experimental part: (§2) The concentrations of bound and free radioactivity were determined by ultrafiltration on 10,000 Da cutoff membranes (AMICON, Centricon-10), which were centrifuged several hours at 4° C.
(§3) Nonspecific binding was assessed by reversing the order of addition, first blocking the […] with excess unlabeled inhibitor before addition of […].

In experiment [4] the target is T3, human skin (type 1) isozyme of 5α-reductase (Homo sapiens, UniProt P18405).
T3 construct: made in house
T3 sequence (P18405 1-259): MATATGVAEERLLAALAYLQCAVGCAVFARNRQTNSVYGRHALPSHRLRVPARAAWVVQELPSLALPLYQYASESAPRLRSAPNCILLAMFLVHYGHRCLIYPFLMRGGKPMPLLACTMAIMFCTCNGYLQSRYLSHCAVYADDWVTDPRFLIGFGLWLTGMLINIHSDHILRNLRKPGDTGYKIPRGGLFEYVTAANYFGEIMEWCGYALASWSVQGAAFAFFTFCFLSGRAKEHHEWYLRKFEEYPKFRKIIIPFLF
The experiment is described as follows: Inhibition of human skin (type 1) 5α-reductase by finasteride. The format is biochemical. To be noted: type 1, from ratio of rate constants; read-out: steady-state Ki *.
Description: as §1
(§4) The human isozymes were employed exclusively in this research. The native isozymes were from scalp (type 1 ) or prostate (type 2) tissues, and the recombinant forms were produced by a baculovirus expression system. Except where specified, all data refer to the prostate (type 2) isozyme, the primary target of finasteride. All of the experiments described in this application were also conducted with the recombinant type 1 isozyme, either in parallel or for confirmation.
(§5) The data for slow-binding inhibition were analyzed as reviewed by Morrison et al., Adv. Enzymol. 61:201-301 (1988). The kinetic model is shown in the Description of the Invention. The time courses were fit to an integrated first-order rate equation (Equation 1), where A is product concentration, .nu.o is the initial velocity, .nu.s is the infinite-time velocity, and kobs is the first-order rate constant for progression of the enzyme between the two equilibrium states.

The target of experiment [5] is T2, human prostate (type 2) isozyme of 5α-reductase. The experiment is described as follows: Dissociation of enzyme-[^3 H]finasteride complex (release of radioactivity), type 2. The format is binding. The arrangement: host or cells: native human prostate tissue or recombinant from a baculovirus expression system; considered interchangeable. To be noted: 21.9 nM enzyme, 9.33 nM [^3 H]finasteride, 466 μM NADPH, pH 7.2, 37° C. As for the experimental part: as §2, §3

Experiment [6] shares this target. Put plainly: Slow-binding / fixed-time inhibition of human prostate (type 2) 5α-reductase by finasteride. The format is biochemical. Also noted: host or cells: native human prostate tissue or recombinant from a baculovirus expression system; considered interchangeable. As for the experimental part: as §1
Where indicated, measurements were also conducted under conditions that have more traditionally been employed for this enzyme at pH 5.50 and 37° C.
The enzyme was either used directly as a crude cell homogenate, or isolated as microsomal suspensions by differential centrifugation. In general, the tissue or cell pellet was combined with an equal volume of buffer and dispersed using a high shear force homogenizer (POLYTRON, high speed) for several minutes in an ice bath below 10° C. […] Saturating levels of cofactor were usually included to improve enzyme stability.
as §4, §5
vo =kcat (E)(S)/(Km (1+([…]))+S) Equation 2
The rate constant for conversion of the weak complex to the high-affinity one, k2, was obtained by nonlinear regression to Equation 3, which also is a function of Ki.
[(I/Ki)/(1+(S/Km)+(I/Ki)]Equation 3

For experiment [7] the target is unchanged.
Description: The rate constant for dissociation of the enzyme-inhibitor complex was determined from the rate of release of radioactivity from enzyme-[^3 H]finasteride complex in the presence of 100-fold excess unlabeled finasteride. The enzyme-[^3 H]finasteride complex was formed in a solution containing excess enzyme: 21.9 nM enzyme (6 mg protein, ~0.04% pure, taken from the relatively homogeneous 100,000×g supernatant fraction). […] After 2 hours, exchange was initiated by making the solution 933 nM in unlabeled finasteride (including 1% ethanol). The solution was divided into aliquots (100 μL) which were incubated at 37° C.; each day a sample was removed and frozen away at -80° C. for future determination of bound and free inhibitor.
To obtain sufficient transformed inhibitor for mass spectral analysis, a preparation of baculovirus-expressed enzyme was employed that consisted of all protein sedimenting between 1,000 to 100,000×g. […] The solution was then dialyzed overnight at 4° C. in 14,000 Da cutoff dialysis tubing (SPECTRAPOR 2) against 2 changes of 4L water containing 1 mM MOPS and 1 mM EDTA at pH 7.20.
In experiment [8] the target is T3, human skin (type 1) isozyme of 5α-reductase. To be noted: cited from earlier work.
Another experiment deals with dihydrotestosterone. To be noted: clinical trials, cited from earlier work.
The target in experiment [9] is T2, human prostate (type 2) isozyme of 5α-reductase. The arrangement: host or cells: native human prostate tissue or recombinant from a baculovirus expression system; considered interchangeable. To be noted: cited from earlier work.

For the molecule `C[C@]12CC[C@H]3[C@@H](CCC4=CC(=O)CC[C@@]43C)[C@@H]1CC[C@@H]2O` [testosterone], the kcat/Km in experiment [1] was 2.99±0.32×10^6 M^-1 s^-1. In experiment [1] (by titration with finasteride), this molecule came in with a turnover number kcat of 0.075 ± 0.006 s⁻¹. Also, the Michaelis-Menten constant (Km) in experiment [2] is 0.02 ± 0.003 µM.
For `CC(C)(C)NC(=O)[C@H]1CC[C@H]2[C@@H]3CC[C@H]4NC(=O)C=C[C@]4(C)[C@H]3CC[C@]12C` [Compound 1, 17β-(N-tert-butylcarbamoyl)-3-oxo-4-aza-5α-androst-1-ene-3-one], the “radiolabel released on denaturation” value in experiment [3] (7M guanidine hydrochloride) is recorded as over 99%; in experiment [3] (45% aqueous ethanol), over 77%; in [3] (boiling water bath, 2 minutes) it was over 96%. For the same molecule, the Ki in experiment [4] is under 0.2 nM; in experiment [6] (type 2 enzyme, read-out: overall equilibrium constant Ki *), under 0.1 nM; in experiment [8] (skin (type 1) isozyme, Tian et al., read-out: Ki of preliminary weak complex), 360 nM; in [9] (Faller et al., native human prostate enzyme, pH 7.0, read-out: dissociation constant Ki) it was over 150 nM; in [9] (human prostate enzyme, as first perceived in fixed-time assays, read-out: Ki (simple, rapidly-reversible inhibitor)) it was 26 nM; in experiment [9] (read-out: Ki of essentially irreversible enzyme-inhibitor complex, Faller et al., human prostate isozyme), under 1 nM. For the same molecule, the “inhibition on complex formation” value is 36% in experiment [5] and 73% in [7] (1.39 μM enzyme, 1.14 μM finasteride, 573 μM NADPH, pH 7.20, 45 min). Besides, the “halflife for dissociation (or turnover) of enzyme-inhibitor complex, predicted from association rate” value in [6] (37° C., assuming Ki * <100 pM) is over 6 h. The “halflife of conversion to high-affinity complex” value in experiment [6] (assuming minimum Ki) is under 30 s. For the same molecule, in [6] (lowest practical concentrations of finasteride (2 nM)), the “suppression of activity at infinite time” value is recorded as “nearly complete suppression of the activity”. The “Ki for the preliminary complex (theoretical line, minimum value)” value in experiment [6] (type 2) came to 100 nM. In [7] (off-rate experiment, one month), the “[^3 H]-1,2-dihydrofinasteride as share of free tritium released from the [^3 H]finasteride-enzyme complex” value is over 95%. Further, the “untransformed [^3 H]finasteride released” value in experiment [7] (off-rate experiment, one month) was “no untransformed [^3 H]finasteride was detected”. In addition, the “second-order rate constant for formation of complex” value in experiment [8] (skin (type 1) isozyme, Tian et al.) was 4000 M⁻¹ s⁻¹. In experiment [8] (skin, listed as finasteride), the “inhibition of type 1 isozyme” value is on record as “not a significant inhibitor of human skin (type 1 ) isozyme at doses employed in the treatment of BPH; also recorded: relatively insensitive to finasteride”. Moreover, the “time for dihydrotestosterone to return to basal levels after withdrawal” value in the experiment on dihydrotestosterone (Stoner, Gormley et al.) is “two”. The “reduction of dihydrotestosterone levels” value in the experiment on dihydrotestosterone (circulating concentrations comparable to Ki) was “reduced levels of dihydrotestosterone to values approaching those found in individuals genetically deficient in the prostate isozyme”. In addition, in experiment [9] (fixed-time assays, previously shown), the “mode of inhibition” value was “competitive with testosterone”. Further, the “inhibition of type 2 isozyme” value in [9] (prostate) was “potently inhibited by finasteride”.
